Laboratory results reported in ChEMBL document CHEMBL5108038, “Development of Inhibitors Targeting the V-Domain Ig Suppressor of T Cell Activation Signal Pathway” (J Med Chem, 2022).
One block for each compound: values may come before it.

Legend:
[1] = Inhibition of PD-L1 in human PBMC; type: cell-based
[2] = Inhibition of VISTA/VSIG3 protein protein interaction (unknown origin) by FRET method; design: species or system Homo sapiens
[3] = target: Programmed cell death protein 1/Programmed cell death 1 ligand 1 (Homo sapiens) (UniProt Q15116+Q9NZQ7); assay: Inhibition of recombinant PD-1/PD-L1 signalling route (unknown origin) at 10 uM by HTRF assay relative to control; type: protein-complex assay
[4] = target: T1, V-type immunoglobulin domain-containing suppressor of T-cell activation (Homo sapiens) (UniProt Q9H7M9); assay: Inhibition of recombinant VISTA signalling pathway (unknown origin) at 10 uM by HTRF assay relative to control
T1 sequence (whole entry): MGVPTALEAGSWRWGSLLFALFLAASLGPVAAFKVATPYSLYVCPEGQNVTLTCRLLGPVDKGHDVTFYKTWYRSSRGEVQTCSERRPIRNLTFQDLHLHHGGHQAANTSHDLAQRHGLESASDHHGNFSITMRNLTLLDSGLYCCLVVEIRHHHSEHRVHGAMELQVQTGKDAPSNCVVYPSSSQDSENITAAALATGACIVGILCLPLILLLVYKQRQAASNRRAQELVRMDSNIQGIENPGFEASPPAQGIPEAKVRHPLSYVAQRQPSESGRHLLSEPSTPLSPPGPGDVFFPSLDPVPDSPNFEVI

[5] = Antitumor immunity in PBMC (unknown origin) assessed as inhibition of VSIG8 binding to VISTA; type: functional, cell-based
[6] = target: T2, V-set and immunoglobulin domain-containing protein 8 (Homo sapiens, UniProt P0DPA2); assay: Binding affinity to human VSIG8 assessed as dissociation constant by MST method
T2 sequence (P0DPA2 whole entry): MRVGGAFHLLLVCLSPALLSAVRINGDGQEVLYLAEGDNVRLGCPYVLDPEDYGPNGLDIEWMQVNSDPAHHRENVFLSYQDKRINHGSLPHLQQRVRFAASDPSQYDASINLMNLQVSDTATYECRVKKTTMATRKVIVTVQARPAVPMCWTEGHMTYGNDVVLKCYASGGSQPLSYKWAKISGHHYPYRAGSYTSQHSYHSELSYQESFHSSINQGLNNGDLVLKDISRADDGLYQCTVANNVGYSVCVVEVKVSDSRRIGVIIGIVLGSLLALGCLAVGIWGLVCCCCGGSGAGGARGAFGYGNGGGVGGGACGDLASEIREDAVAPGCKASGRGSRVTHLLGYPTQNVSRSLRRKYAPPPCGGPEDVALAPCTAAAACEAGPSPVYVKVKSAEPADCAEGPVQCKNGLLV

[7] = target: T3, V-type immunoglobulin domain-containing suppressor of T-cell activation (Homo sapiens, UniProt Q9H7M9); assay: Binding affinity to VISTA (unknown origin) assessed as dissociation constant by MST method
T3 sequence (Q9H7M9 whole entry): T1 sequence (whole entry)

SMILES: C[C@@H](O)[C@H](NC(=O)N[C@@H](CC(N)=O)c1nc([C@H](N)CO)no1)C(=O)O
EC50 [1]: 0.0661 µM

SMILES: CN(C)c1n/c(=N\Cc2ccco2)ss1
IC50 [2]: 4.8 µM

SMILES: COc1cc(NC(=O)Nc2c(-c3ccncc3)[nH]c3ccc(Cl)cc23)cc(OC)c1
EC50 [5]: 1.46 µM | Kd [6]: 6.7 µM

Continued, in another order:

inhibition [4]: 81%
SMILES: C[C@@H](O)[C@H](NC(=O)C1(C(=O)N[C@@H](CC(N)=O)c2nc([C@H](N)CO)no2)CCCC1)C(=O)O
inhibition [3]: 92%

Kd [7]: 0.647 µM
SMILES: Cc1ccc2nc(Nc3nc(O)cc(CSc4nnc(C)s4)n3)nc(C)c2c1
